We go through 22 substances from patent publication US9597407B2, “Targeted antimicrobial moieties” (C3 Jian, Inc., priority 2009, dated 2017).

For this test, the system named is microorganisms. Description: Morphology, biofilm and growth disruption by peptides (Table 5). It is filed as cell-based. Set-up: key: A: Peptide aggregates; B: Less hyphal formation; Clumps; Diffuse clumps and small polyps; F: Diffuse growth; H: Thin; I: Growth inhibition; Microcolony formation; Rippled; Small polyps; Thick; W: Halo formation on top, microlonies on bottom. From the text: In certain embodiments peptides that induce alterations in phenotype or other biological activities can also be used as antimicrobial effector moieties.

Ends that are not written are not given here.

Consider DLLKSLLGQDGAKNDEIIEFIKIIMEK [PF-591], for which the “Organism, effect (morphology, biofilm and growth disruption)” value (C. jejuni) was “C. jejuni (C)”; the “Organism, effect (morphology, biofilm and growth disruption)” value (E. faecalis) is listed as “E. faecalis (A)”; the “Organism, effect (morphology, biofilm and growth disruption)” value (S. pneumoniae) is on record as “S. pneumoniae (R)”.

“EILNNNQVIKELTMKYKTQFESNLGGWTARARR [PF-580]”: the “Organism, effect (morphology, biofilm and growth disruption)” value was “M. luteus (C)” (M. luteus), “MRSA (M)” (MRSA), “S. epidermidis (M)” (S. epidermidis) and “S. pneumoniae (C)” (S. pneumoniae).

Regarding “FESKILNASKELDKEKKVNTALSFNSHQDFAKAYQNGKI [PF-606]”, the “Organism, effect (morphology, biofilm and growth disruption)” value runs as follows: (C. albicans) “C. albicans (B)”; (MRSA) “MRSA (I)”; (S. epidermidis) “S. epidermidis (I)”; (S. mutans) “S. mutans (I)”; (S. pneumoniae) “S. pneumoniae (H)”.

FQKPFTGEEVEDFQDDDEIPTII [PF-437]: the “Organism, effect (morphology, biofilm and growth disruption)” value (S. pneumoniae) is on record as “S. pneumoniae (I)”.

On to GIVLIGLKLIPLLANVLR [PF-322], for which the “Organism, effect” value by setting is: (B. subtilis) “B. subtilis (H)”; (S. epidermidis) “S. epidermidis (C)”.

For the substance “GSVIKKRRKRMAKKKHRKLLKKTRIQRRRAGK [PF-527]”, the “Organism, effect (morphology, biofilm and growth disruption)” value is, setting by setting: (B. subtilis) “B. subtilis (I)”; (C. albicans) “C. albicans (B)”; (C. jeikeium) “C. jeikeium (I)”; (C. jejuni) “C. jejuni (M)”; (M. luteus) “M. luteus (S)”; (MRSA) “MRSA (I)”. Further, the “Organism, effect (morphology, biofilm and growth disruption)” value by setting is: (P. aeruginosa) “P. aeruginosa (I)”; (S. epidermidis) “S. epidermidis (M)”; (S. pneumoniae) “S. pneumoniae (H)”.

For KFQGEFTNIGQSYIVSASHMSTSLNTGK [PF-583], the “Organism, effect (morphology, biofilm and growth disruption)” value was “MRSA (I)” (MRSA), “S. epidermidis (I)” (S. epidermidis), “S. mutans (F)” (S. mutans) and “S. pneumoniae (D)” (S. pneumoniae).

As to KFSDQIDKGQDALKDKLGDL [PF-525], the “Organism, effect (morphology, biofilm and growth disruption)” value (S. pneumoniae) is recorded as “S. pneumoniae (H)”.

Turning to KNKKQTDILEKVKEILDKKKKTKSVGQKLY [PF-538], the “Organism, effect (morphology, biofilm and growth disruption)” value (S. pneumoniae) is “S. pneumoniae (H)”.

For KTPNDKIHKTIIIKHIIL [PF-533], the “Organism, effect (morphology, biofilm and growth disruption)” value (E. coli) is “E. coli (R)”; the “Organism, effect (morphology, biofilm and growth disruption)” value (E. faecalis) was “E. faecalis (C)”; the “Organism, effect (morphology, biofilm and growth disruption)” value (MRSA) is on record as “MRSA (H)”; the “Organism, effect (morphology, biofilm and growth disruption)” value (S. epidermidis) is listed as “S. epidermidis (H)”; the “Organism, effect (morphology, biofilm and growth disruption)” value (S. pneumoniae) was “S. pneumoniae (C)”.

In the case of “LGLTAGVAYAAQPTNQPTNQPTNQPTNQPTNQPTNQPRW-NH2 [PF-520]”, under “S. pneumoniae”, the “Organism, effect (morphology, biofilm and growth disruption)” value is recorded as “S. pneumoniae (M)”.

On to MGIIAGIIKVIKSLIEQFTGK [PF-007], for which the “Organism, effect” value runs as follows: (E. coli) “E. coli (A)”; (E. faecalis) “E. faecalis (A)”; (M. luteus) “M. luteus (A)”; (MRSA) “MRSA (R)”; (S. epidermidis) “S. epidermidis (A)”.

As for MIHLTKQNTMEALHFIKQFYDMFFILNFNV [PF-040], the “Organism, effect” value was “B. subtilis (D)” (B. subtilis); “C. jeikeium (D)” (C. jeikeium); “C. jejuni (D)” (C. jejuni); “E. coli (C)” (E. coli); “M. luteus (D)” (M. luteus); “MRSA (D)” (MRSA). Moreover, the “Organism, effect” value is given as “P. mirabilis (C)” (P. mirabilis), “S. epidermidis (D)” (S. epidermidis), “S. mutans (F)” (S. mutans) and “S. pneumoniae (D)” (S. pneumoniae).

Regarding MRFGSLALVAYDSAIKHSWPRPSSVRRLRM [PF-672], the “Organism, effect (morphology, biofilm and growth disruption)” value by setting is: (B. subtilis) “B. subtilis (I)”; (C. albicans) “C. albicans (I)”; (C. jeikeium) “C. jeikeium (R)”; (E. faecalis) “E. faecalis (I)”; (MRSA) “MRSA (I)”; (S. epidermidis) “S. epidermidis (I)”. Besides, the “Organism, effect (morphology, biofilm and growth disruption)” value (S. pneumoniae) is recorded as “S. pneumoniae (I)”.

Regarding “PF-001 (chain 1 MNNWIIVAQLSVTVINEIIDIMKEKQKGGK; chain 2 MNNWIIVAQLSVTVINEIIDIMKEKQKGGK; Peptide with targeting and/or antimicrobial activity)”, the “Organism, effect” value is recorded as “C. jeikeium (D)” (C. jeikeium), “M. luteus (C)” (M. luteus), “MRSA (R)” (MRSA) and “S. epidermidis (C)” (S. epidermidis).

For the substance “PF-004 (chain 1 ARLSKAIIIAVIVVYHLDVRGLF; chain 2 ARLSKAIIIAVIVVYHLDVRGLF; Peptide with targeting and/or antimicrobial activity)”, the “Organism, effect” value is, setting by setting: (C. jeikeium) “C. jeikeium (A)”; (M. luteus) “M. luteus (A)”; (MRSA) “MRSA (R)”; (S. epidermidis) “S. epidermidis (A)”.

For “PF-019 (NDTNK; Peptide with targeting and/or antimicrobial activity)”, the “Organism, effect” value (MRSA) was “MRSA (M)”.

As to “PF-032 (RIVVPAHQSNMASTPNLSITP; Peptide with targeting and/or antimicrobial activity)”, the “Organism, effect” value by setting is: (C. jeikeium) “C. jeikeium (C)”; (S. epidermidis) “S. epidermidis (S)”.

Take “PF-059 (TITLKAGIERALHEEVPGVIEVEQVF; Peptide with targeting and/or antimicrobial activity)”: the “Organism, effect” value (C. jejuni) was “C. jejuni (C)”.

For “PF-067 (DLIVKVHICFVVKTASGYCYLNKREAQAAI; Peptide with targeting and/or antimicrobial activity)”, the “Organism, effect” value reads like this: (B. subtilis) “B. subtilis (C)”; (C. jeikeium) “C. jeikeium (D)”; (C. jejuni) “C. jejuni (D)”; (M. luteus) “M. luteus (R)”; (MRSA) “MRSA (M)”; (P. aeruginosa) “P. aeruginosa (A)”. The “Organism, effect” value is reported as “S. epidermidis (D)” (S. epidermidis) and “S. pneumoniae (D)” (S. pneumoniae).

As for “PF-076 (LYQYELLSKEEYLKCTLIINQRRNEQK; Peptide with targeting and/or antimicrobial activity)”, the “Organism, effect” value runs as follows: (C. jeikeium) “C. jeikeium (A)”; (M. luteus) “M. luteus (A)”; (MRSA) “MRSA (R)”; (S. epidermidis) “S. epidermidis (S)”.

Regarding “PF-125 (YVVGALVILAVAGLIYSMLRKA; Peptide with targeting and/or antimicrobial activity)”, the “Organism, effect” value is “M. luteus (C)” (M. luteus) and “S. epidermidis (D)” (S. epidermidis).
